Data set [1] in a line: in vitro. The conditions noted are these: human, Caco-2.
Method: Caco-2 cells were obtained from American Type Culture Collection. Prior to the experiments,
the cells were seeded on 55 cm2 bottom culture dishes (Corning). The cells were cultured at
37°C in a humidified CO2 (5%) incubator and routinely passaged about once a week. Caco-2
cultured in the medium at 37°C in a humidified CO2 (5%) incubator for 23 days to prepare cell
The medium was changed 4 days after seeding and then changed every 2 or 3 days
thereafter. Before the experiment, the integrity of the Caco-2 cell monolayer was checked by
measuring the trans-epithelial electrical resistance (TEER) value. The TEER values of cell
In the transport experiments, the medium of top side of the cells (apical side) and basal
side of the cells (basal side) were replaced with the DMSO-HBSS solution, the inhibitor-HBSS
control), or the test solutions (digoxin and mannitol as substrates). The volumes of the replaced
solutions were 300 μL for the apical side and 1 mL for the basal side. The DMSO-HBSS […]
of the solution in each basal side (receiver side) were collected and measured for the
radioactivity using an LSC. […]
collected and measured for the radioactivity using an LSC. […]
side (receiver side) were collected and measured for the radioactivity using an LSC. […]
in each apical side and each basal side (donor side) were collected and measured for the
radioactivity using an LSC.
Data set [2] concerns CYP3A4. Also on record: method as in PMID 15242978, PMID 9929500. The conditions noted are these: cited from earlier work.

Structures are written as SMILES.

In general, Papp refers to a coefficient for how fast a substance crosses the barrier. High values mean fast passage, low ones slow passage.

Turning to `CC(C)NCC(O)COc1cccc2ccccc12` (centres unmarked) [propranolol, reference compound], the Papp in data set [1] was 27.8 ×10⁻⁶ cm/s.
As for `CCC(C)n1ncn(-c2ccc(N3CCN(c4ccc(OCC5COC(Cn6cncn6)(c6ccc(Cl)cc6Cl)O5)cc4)CC3)cc2)c1=O` (centres unmarked) [itraconazole], the “CYP3A4 inhibitor potency over ketoconazole” value in data set [2] was approximately 10 fold.

Source of the values: article PMC12044326 (Clinical Pharmacology in Drug Development, 2025).
